US12528767B2, “HDAC6 inhibitors and uses thereof” (Eikonizo Therapeutics, Inc., priority 2019, dated 2026)
Read-outs that look alike come from different tables or passages of the source.

Assays:
[1] = molecular target: T1, Full length Human HDAC6 (Homo sapiens, UniProt Q9UBN7)
T1 sequence (Q9UBN7 1-1215): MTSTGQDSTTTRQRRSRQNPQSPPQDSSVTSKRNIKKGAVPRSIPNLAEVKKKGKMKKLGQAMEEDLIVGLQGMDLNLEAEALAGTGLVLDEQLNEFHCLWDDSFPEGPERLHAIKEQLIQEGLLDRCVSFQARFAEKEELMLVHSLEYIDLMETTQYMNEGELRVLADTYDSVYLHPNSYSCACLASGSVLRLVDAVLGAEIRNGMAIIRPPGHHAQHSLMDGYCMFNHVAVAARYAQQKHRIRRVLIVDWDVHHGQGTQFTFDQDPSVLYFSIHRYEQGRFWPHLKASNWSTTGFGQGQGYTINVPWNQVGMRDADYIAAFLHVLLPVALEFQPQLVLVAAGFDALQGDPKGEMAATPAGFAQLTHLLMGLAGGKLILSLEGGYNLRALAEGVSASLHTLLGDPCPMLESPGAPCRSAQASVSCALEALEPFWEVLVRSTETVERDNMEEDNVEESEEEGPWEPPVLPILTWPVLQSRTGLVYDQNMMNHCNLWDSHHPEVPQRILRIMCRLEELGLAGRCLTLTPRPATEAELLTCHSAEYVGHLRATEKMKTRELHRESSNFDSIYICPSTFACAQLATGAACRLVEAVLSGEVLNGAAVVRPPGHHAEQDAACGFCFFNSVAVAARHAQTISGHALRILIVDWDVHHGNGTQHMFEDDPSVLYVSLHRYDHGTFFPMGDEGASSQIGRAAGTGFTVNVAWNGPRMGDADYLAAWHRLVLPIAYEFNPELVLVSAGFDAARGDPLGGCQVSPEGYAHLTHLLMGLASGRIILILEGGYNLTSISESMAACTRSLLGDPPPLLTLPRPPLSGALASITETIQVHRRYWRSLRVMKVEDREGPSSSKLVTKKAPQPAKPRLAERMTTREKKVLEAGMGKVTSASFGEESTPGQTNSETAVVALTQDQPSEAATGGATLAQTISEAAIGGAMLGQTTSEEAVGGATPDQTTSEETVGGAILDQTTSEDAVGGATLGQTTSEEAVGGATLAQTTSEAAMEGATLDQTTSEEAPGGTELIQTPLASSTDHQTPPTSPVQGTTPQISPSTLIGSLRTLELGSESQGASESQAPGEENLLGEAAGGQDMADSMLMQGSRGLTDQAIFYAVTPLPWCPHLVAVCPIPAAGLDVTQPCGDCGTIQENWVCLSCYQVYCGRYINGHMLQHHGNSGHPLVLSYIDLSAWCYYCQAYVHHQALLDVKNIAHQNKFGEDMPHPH

[2] = molecular target: T2, Human HDAC7 aa 518-end (Homo sapiens, UniProt Q8WUI4)
T2 sequence (Q8WUI4 518-952 limits assumed): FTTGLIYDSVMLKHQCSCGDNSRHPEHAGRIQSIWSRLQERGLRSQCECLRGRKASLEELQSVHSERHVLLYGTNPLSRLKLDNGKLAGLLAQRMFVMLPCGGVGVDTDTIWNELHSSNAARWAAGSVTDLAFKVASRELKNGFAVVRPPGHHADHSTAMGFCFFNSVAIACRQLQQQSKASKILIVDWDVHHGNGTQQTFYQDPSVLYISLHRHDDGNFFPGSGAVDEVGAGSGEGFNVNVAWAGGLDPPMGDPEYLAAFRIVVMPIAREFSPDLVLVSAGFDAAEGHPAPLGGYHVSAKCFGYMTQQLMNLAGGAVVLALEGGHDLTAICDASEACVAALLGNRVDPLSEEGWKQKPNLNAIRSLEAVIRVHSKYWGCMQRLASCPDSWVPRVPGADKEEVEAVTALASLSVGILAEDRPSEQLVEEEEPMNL

[3] = molecular target: T3, Full length Human HDAC8 (Homo sapiens, UniProt Q9BY41)
T3 sequence (Q9BY41 1-377): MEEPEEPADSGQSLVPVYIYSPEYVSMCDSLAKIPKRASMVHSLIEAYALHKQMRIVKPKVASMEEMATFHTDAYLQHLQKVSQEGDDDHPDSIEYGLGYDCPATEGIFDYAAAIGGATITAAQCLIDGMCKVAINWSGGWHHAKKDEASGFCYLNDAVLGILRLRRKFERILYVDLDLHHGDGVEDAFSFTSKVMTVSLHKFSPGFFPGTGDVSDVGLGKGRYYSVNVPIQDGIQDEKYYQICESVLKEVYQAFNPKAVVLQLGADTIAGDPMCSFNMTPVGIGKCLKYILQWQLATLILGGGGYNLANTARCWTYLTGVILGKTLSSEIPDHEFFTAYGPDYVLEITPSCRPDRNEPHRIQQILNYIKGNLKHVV

[4] = molecular target: T4, Full length Human HDAC10 (Homo sapiens, UniProt Q969S8)
T4 sequence (Q969S8 1-669): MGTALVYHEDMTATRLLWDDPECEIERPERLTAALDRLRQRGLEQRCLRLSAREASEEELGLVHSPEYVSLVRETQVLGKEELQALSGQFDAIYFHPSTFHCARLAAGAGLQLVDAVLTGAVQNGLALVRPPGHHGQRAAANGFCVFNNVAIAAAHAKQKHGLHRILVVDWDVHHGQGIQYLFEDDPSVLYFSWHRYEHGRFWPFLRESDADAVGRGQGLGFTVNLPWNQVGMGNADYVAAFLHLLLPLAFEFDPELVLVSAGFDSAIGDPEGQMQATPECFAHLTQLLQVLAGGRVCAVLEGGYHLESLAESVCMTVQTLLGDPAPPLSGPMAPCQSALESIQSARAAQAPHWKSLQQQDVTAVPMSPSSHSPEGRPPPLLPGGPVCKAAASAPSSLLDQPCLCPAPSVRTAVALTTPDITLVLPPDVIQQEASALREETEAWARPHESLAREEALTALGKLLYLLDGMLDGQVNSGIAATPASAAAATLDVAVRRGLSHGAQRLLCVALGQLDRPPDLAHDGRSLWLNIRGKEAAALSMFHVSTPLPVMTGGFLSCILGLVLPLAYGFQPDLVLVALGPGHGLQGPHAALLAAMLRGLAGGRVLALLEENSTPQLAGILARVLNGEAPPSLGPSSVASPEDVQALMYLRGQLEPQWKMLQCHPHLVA

[5] = read-out: In vitro enzymatic IC50, HDAC Paralog 6, Table 2
[6] = read-out: In vitro enzymatic IC50, HDAC Paralog 8, Table 2

Structure (SMILES)	IC50 [1]	IC50 [1, 5]	IC50 [2]	IC50 [3]	IC50 [3, 6]	IC50 [4]
O=C(NO)c1cc(F)c2c(c1)CCN(CC13CC4CC(CC(C4)C1)C3)C2 [compound 34]	0.001 to 0.1 µM	0.001 to 0.1 µM	10 to 100 µM	10 to 100 µM	10 to 100 µM	10 to 100 µM
O=C(NO)c1cc(F)c2c(c1)CCN(C1CC3(CCCCC3)C1)C2 [compound 16]	0.001 to 0.1 µM	0.001 to 0.1 µM	10 to 100 µM	10 to 100 µM	10 to 100 µM	10 to 100 µM
O=C(NO)c1cc(F)c2c(c1)C[C@H]1CCCCN1C2 (single isomer, unassigned) [compound 94]	0.1 to 1 µM	–	1 to 10 µM	1 to 10 µM	–	> 100 µM
O=C(NO)c1cc(F)c2c(c1)CCN(Cc1ccccc1)C2 [compound 32]	0.001 to 0.1 µM	0.001 to 0.1 µM	1 to 10 µM	1 to 10 µM	1 to 10 µM	10 to 100 µM
O=C(NO)c1ccc2c(c1)CN1CCCCN1C2 [compound 106, N-hydroxy-1,2,3,4,6,11-hexahydropyridazino[1,2-b]phthalazine-8-carboxamide]	0.1 to 1 µM	0.1 to 1 µM	10 to 100 µM	1 to 10 µM	1 to 10 µM	> 100 µM
O=C(NO)c1cc(F)c2c(c1)C[C@@H]1CCCCN1C2 (single isomer, unassigned) [compound 93]	0.001 to 0.1 µM	–	1 to 10 µM	1 to 10 µM	–	10 to 100 µM
O=C(NO)c1cc(F)c2c(c1)CCN1CCC[C@@H]21 (single isomer, unassigned) [compound 79]	0.001 to 0.1 µM	–	0.1 to 1 µM	1 to 10 µM	–	10 to 100 µM

Results, then the compound that gave them:

IC50 [1]	IC50 [1, 5]	IC50 [2]	IC50 [3]	IC50 [3, 6]	IC50 [4]	Structure (SMILES)
0.001 to 0.1 µM	–	1 to 10 µM	1 to 10 µM	–	10 to 100 µM	O=C(NO)c1ccc(CN2C[C@H]3CC[C@@H]2CO3)c(F)c1 (single isomer, unassigned) [compound 173]
0.001 to 0.1 µM	0.001 to 0.1 µM	0.1 to 1 µM	0.1 to 1 µM	0.1 to 1 µM	1 to 10 µM	O=C(NO)c1ccc(CN2CC3CCC(C2)O3)c(F)c1 [compound 53]
0.001 to 0.1 µM	0.001 to 0.1 µM	1 to 10 µM	1 to 10 µM	1 to 10 µM	> 100 µM	O=C(NO)c1ccc(CN2C[C@@H]3CC[C@H]2CO3)c(F)c1 (single isomer, unassigned) [compound 172]
0.001 to 0.1 µM	0.001 to 0.1 µM	1 to 10 µM	0.1 to 1 µM	0.1 to 1 µM	10 to 100 µM	O=C(NO)c1ccc(CN2CC3CCC2CO3)c(F)c1 (stereo not shown) [compound 58]
0.001 to 0.1 µM	0.001 to 0.1 µM	1 to 10 µM	1 to 10 µM	1 to 10 µM	10 to 100 µM	O=C(NO)c1ccc(CN2CCC3(CCCCC3)C2)c(F)c1 [compound 75, 4-((2-Azaspiro[4.5]decan-2-yl)methyl)-3-fluoro-N-hydroxybenzamide]
